Experimental data published in publication PMC5316530, “The Ratio of 2-AG to Its Isomer 1-AG as an Intrinsic Fine Tuning Mechanism of CB1 Receptor Activation” (Frontiers in Cellular Neuroscience, 2017).

Biological target: T1, CB1 receptor (Mus musculus, UniProt P47746)
T1 construct: gene Cnr1; pcDNA3 CB1 (Addgene plasmid # 13391) overexpressed in COS7 cells
Test: Fluo-8 Ca2+ imaging in CB1-transfected COS7 cells; concentration-response, blocked by AM251
Format: cell-based

T1 sequence (P47746 whole entry): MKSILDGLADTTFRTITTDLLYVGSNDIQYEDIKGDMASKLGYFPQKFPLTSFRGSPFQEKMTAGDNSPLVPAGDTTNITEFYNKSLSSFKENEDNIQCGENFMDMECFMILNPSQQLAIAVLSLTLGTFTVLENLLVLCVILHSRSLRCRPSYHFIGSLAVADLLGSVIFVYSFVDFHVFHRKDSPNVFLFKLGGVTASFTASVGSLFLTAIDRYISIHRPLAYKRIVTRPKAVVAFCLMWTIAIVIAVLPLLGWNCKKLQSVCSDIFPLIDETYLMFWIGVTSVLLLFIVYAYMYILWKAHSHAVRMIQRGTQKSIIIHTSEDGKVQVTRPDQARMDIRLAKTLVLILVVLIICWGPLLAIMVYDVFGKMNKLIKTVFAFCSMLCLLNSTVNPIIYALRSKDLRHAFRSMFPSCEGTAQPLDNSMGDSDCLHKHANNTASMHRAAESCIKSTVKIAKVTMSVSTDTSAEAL

SMILES	EC50 [nM]
CCCCC/C=C\C/C=C\C/C=C\C/C=C\CCCC(=O)OC[C@@H](O)CO [1-AG]	1900
CCCCC/C=C\C/C=C\C/C=C\C/C=C\CCCC(=O)OC(CO)CO [2-AG]	600
